Like-named read-outs stand apart in the source and are kept apart here.
Tests used:
SARS-CoV-2 [1] = assay: microbe, parasite or virus in culture; format: cell-based; details: Severe acute respiratory syndrome coronavirus 2, 72 h; VeroE6/TMPRSS2 cells, 3 days; class symbols
[2] = target: Recombinant SARS-CoV-2 3CL Protease (Severe acute respiratory syndrome coronavirus 2 (2019-nCoV) (SARS-CoV-2), UniProt P0DTD1); assay: Test Example 2: inhibitory activity test against SARS-CoV-2 3CL protease; format: biochemical; details: class symbols
[3] = test system: SARS-CoV-2 Omicron Strain; assay: Test Example 1-3: CPE suppression in Vero E6/TMPRSS2 cells, Omicron strains; format: cell-based
HCoV-229E = assay: Test Example 8: antiviral effect on HCoV-229E (MRC-5 cells, CellTiter-Glo); format: cell-based; details: Human coronavirus 229E, MRC5, read-out: EC50 (50% HCoV-229E infected cell death inhibitory concentration), 72 hours
Procedure: Test Example 8: Antiviral Effect on HCoV-229E
The test sample is preliminarily diluted with DMSO to an appropriate concentration, and a 3-fold serial dilution series is prepared and then dispensed into a 96-well plate and diluted in a maintenance medium (MEM, 2% FBS, penicillin-streptomycin).
MRC-5 cells (2×10^4 cells/well) suspended in a subculture medium (DMEM, 10% FBS, penicillin-streptomycin) are seeded in a 96-well plate a day before infection, and the next day, HCoV-229E (1000 TCID50/well) suspended in a maintenance medium (MEM, 2% FBS, penicillin-streptomycin) is infected for 1 hour. Thereafter, virus fluid is removed, a maintenance medium including a test reagent is added, and culturing is carried out in a CO2 incubator for 72 hours. Furthermore, in order to examine cytotoxicity of the test reagent, the same operation is performed in the absence of virus.
After returning the plate cultured for 72 hours to room temperature, CellTiter-Glo (registered trademark) 2.0 is dispensed into each well and mixed with a plate mixer. After a certain time interval, the luminescence signal (Lum) is measured with a plate reader.
When x is taken as the logarithmic value of the compound concentration and y as % Efficacy, the inhibition curve is approximated by the following Logistic regression equation, and the value of x when substituting 50(%) for y is calculated as EC50.
[formula] […]

[4] = test system: SARS-CoV-2 hCoV-19/Japan/TY7-501/2021; assay: Test Example 9: influence of human serum and mouse serum on anti-SARS-CoV-2 activity; format: cell-based; details: Severe acute respiratory syndrome coronavirus 2, serum 100% condition by linear regression
SARS-CoV-2 [5] = assay: microbe, parasite or virus in culture; format: cell-based; details: Severe acute respiratory syndrome coronavirus 2, HEK-293T; HEK293T/ACE2-TMPRSS2 cells; strains WK-521, QK002, TY7-501, TY8-612, TY11-927-P1
[6] = test system: SARS-CoV-2 hCoV-19/Japan/TY38-873/2021; assay: Test Example 10-2: CPE suppression in HEK293T/ACE2-TMPRSS2 cells (TY38-873); format: cell-based; details: Severe acute respiratory syndrome coronavirus 2, HEK-293T
[7] = test system: SARS-CoV-2 hCoV19/Japan/TY11-927/2021 strain; format: in vivo, Syrian hamsters; details: 6 days after start
[8] = test system: SARS-CoV-2 hCoV19/Japan/TY11-927/2021 strain; design: species or system Syrian hamsters; details: in vivo
[9] = test system: SARS-CoV-2 hCoV19/Japan/TY11-927/2021 strain; format: in vivo, Syrian hamsters; details: 3 days after start of living together
in vitro = details: human
SARS-CoV Hanoi strain = assay: microbe, parasite or virus in culture; details: Severe acute respiratory syndrome coronavirus, VeroE6/TMPRSS2, 72 h, read-out: EC50 (50% virus infected cell death inhibitory concentration)
HCoV-OC43 = assay: microbe, parasite or virus in culture; details: Betacoronavirus 1, OC43, MRC5, 42 h, read-out: EC90 (90% HCoV-OC43 viral replication inhibitory concentration)
[10] = target: SARS-CoV-2 3CL Protease WT (Severe acute respiratory syndrome coronavirus 2 (2019-nCoV) (SARS-CoV-2), UniProt P0DTD1); assay: biochemical; details: read-out: EC50 (table head; method calculates IC50)

Compound | EC50 (SARS-CoV-2 [1]) [nM] | IC50 [2] [nM] | other results
CC(=O)NCCn1cc2cc(Nc3nc(=O)n(-c4cncc5ccccc45)c(=O)n3Cc3cc(F)c(F)c(F)c3)c(Cl)cc2n1 [Compound I-033] | 1000 to 10000 | < 100 | 
Cc1cncc(-n2c(=O)nc(Nc3cc4cn(C(F)F)nc4cc3Cl)n(Cc3ccc(F)c(C#N)c3)c2=O)c1 [Compound I-026] | < 1000 | < 100 | 
Cn1cnc(Cn2c(=O)nc(Nc3cc4cn(CC(F)F)nc4cc3Cl)n(Cc3cc(F)c(F)c(F)c3)c2=O)n1 [Compound I-029] | < 1000 | < 100 | 
Cn1cnc(Cn2c(=O)[nH]/c(=N\c3cc4cn(C)nc4cc3Cl)n(Cc3cc(F)c(F)cc3F)c2=O)n1 |  |  | EC50 ([3]; Severe acute respiratory syndrome coronavirus 2, VeroE6/TMPRSS2, Omicron TY38-871 (BA.1.1)): 360 nM; EC50 ([3]; Severe acute respiratory syndrome coronavirus 2, VeroE6/TMPRSS2, Omicron TY38-873 (BA.1)): 290 nM; EC50 ([3]; Severe acute respiratory syndrome coronavirus 2, VeroE6/TMPRSS2, Omicron TY40-385 (BA.2)): 520 nM; EC50 ([3]; Severe acute respiratory syndrome coronavirus 2, VeroE6/TMPRSS2, Omicron TY41-686 (XE)): 440 nM; EC50 ([3]; Severe acute respiratory syndrome coronavirus 2, VeroE6/TMPRSS2, Omicron TY41-702 (BA.5)): 400 nM; EC50 ([3]; Severe acute respiratory syndrome coronavirus 2, VeroE6/TMPRSS2, Omicron TY41-703 (BA.4)): 220 nM; EC50 ([3]; Severe acute respiratory syndrome coronavirus 2, VeroE6/TMPRSS2, Omicron TY41-716 (BA.2.75)): 300 nM; EC50 (HCoV-229E): 5530 nM; EC50 ([4]; human serum, read-out: human serum PA-EC50 (protein-adjusted EC50)): 3020 nM; EC50 ([4]; mouse serum, read-out: mouse serum PA-EC50 (protein-adjusted EC50)): 3930 nM; EC50 (SARS-CoV-2 [5]): 26 to 58 nM; EC50 [6]: 83 nM; lung virus titer of administered hamsters co-housed with infected hamster ([7]; 30 mg/kg oral twice a day for six days): 3.48 log10 PFU50/mL; lung virus titer of administered hamsters co-housed with infected hamster ([7]; 200 mg/kg oral twice a day for six days): a detection limit value or less; lung virus titer of uninfected hamsters co-housed with treated infected hamster [8]: the detection limit value or less; intranasal concha virus titer of uninfected hamster co-housed with treated infected hamster [9]: 2.89 log10 TCID50/mL; lung virus titer of uninfected hamster co-housed with treated infected hamster [9]: 2.97 log10 TCID50/mL; CC50 (in vitro): > 200000 nM; EC50 (SARS-CoV Hanoi strain): 209 nM; EC90 (HCoV-OC43): 74 nM
Cn1cnc(Cn2c(=O)nc(Nc3cc4cn(C(F)F)nc4cc3Cl)n(Cc3cc(F)c(F)c(F)c3)c2=O)n1 [Compound I-030] | 1000 to 10000 | < 100 | 
Cn1cc2cc(Nc3nc(=O)n(-c4cncc(CO)c4)c(=O)n3Cc3cc(F)c(F)c(F)c3)ccc2n1 [Compound I-008] |  | 100 to 1000 | 
Cn1cnc(Cn2c(=O)nc(Nc3cc4cn(CCO)nc4cc3Cl)n(Cc3cc(F)c(F)c(F)c3)c2=O)n1 [Compound I-028] | 1000 to 10000 | < 100 | 
Cc1cncc(-n2c(=O)nc(Nc3cc4cn(C)nc4cc3Cl)n(Cc3cc(F)c(F)c(F)c3)c2=O)c1 |  |  | IC50 [10]: 16.7 nM
Cn1cc2cc(Nc3nc(=O)n(-c4cncc5ccccc45)c(=O)n3Cc3cc(F)c(F)c(F)c3)ccc2n1 [Compound I-016] | < 1000 | < 100 | 
Cc1cncc(-n2c(=O)nc(Nc3cc4cn(C)nc4cc3C)n(Cc3ccc(F)c(C#N)c3)c2=O)c1 [Compound I-019] | < 1000 | < 100 | 
Cc1cncc(-n2c(=O)nc(Nc3cc4cn(C)nc4cc3C)n(Cc3cc(F)c(F)c(F)c3)c2=O)c1 [Compound I-004] | 1000 to 10000 | < 100 | 
Cc1nc2cc(C)c(Nc3nc(=O)n(Cc4c[nH]cn4)c(=O)n3Cc3cc(F)c(F)c(F)c3)cc2s1 [Compound I-001] |  | 1000 to 10000 | 
Cn1cnc(Cn2c(=O)nc(Nc3cc4cn(C)nc4cc3Cl)n(Cc3cc(F)c(F)c(F)c3)c2=O)n1 [Compound I-021] | < 1000 | < 100 | 
CC(=O)N1CC(n2cc3cc(Nc4nc(=O)n(-c5cncc6ccccc56)c(=O)n4Cc4cc(F)c(F)c(F)c4)c(Cl)cc3n2)C1 [Compound I-007] |  | < 100 | 
Cc1nc2cc(Cl)c(Nc3nc(=O)n(-c4cncc5ccccc45)c(=O)n3Cc3cc(F)c(F)c(F)c3)cc2n1C [Compound I-032] | 1000 to 10000 | < 100 | 
Cn1cc2cc(Nc3nc(=O)n(-c4cncc5ccccc45)c(=O)n3Cc3ccc(F)c(C#N)c3)c(Cl)cc2n1 [Compound I-015] | < 1000 | < 100 | 
O=c1nc(Nc2cc3cn(CCN4CCOCC4)nc3cc2Cl)n(Cc2cc(F)c(F)c(F)c2)c(=O)n1-c1cncc2ccccc12 [Compound I-020] | 1000 to 10000 | < 100 | 
Cc1cncc(-n2c(=O)nc(Nc3ccc4nn(CC(F)F)cc4c3)n(Cc3ccc(F)c(C#N)c3)c2=O)c1 [Compound I-011] | < 1000 | < 100 | 
Cc1cncc(-n2c(=O)nc(Nc3cc4cn(C)nc4cc3F)n(Cc3ccc(F)c(C#N)c3)c2=O)c1 [Compound I-018] | < 1000 | < 100 | 
N#Cc1cc(Cn2c(Nc3ccc4nn(CC(F)F)cc4c3)nc(=O)n(-c3cncc4ccccc34)c2=O)ccc1F [Compound I-009] | < 1000 | < 100 | 
Cn1cc2cc(Nc3nc(=O)n(-c4cncc5ccccc45)c(=O)n3Cc3ccc(F)c(C#N)c3)c(F)cc2n1 [Compound I-025] | < 1000 | < 100 | 
Cc1nc2cc(Cl)c(Nc3nc(=O)n(Cc4ncn(C)n4)c(=O)n3Cc3cc(F)c(F)c(F)c3)cc2n1C [Compound I-022] | 1000 to 10000 | < 100 | 
O=c1nc(Nc2ccc3nn(CC(F)F)cc3c2)n(Cc2cc(F)c(F)c(F)c2)c(=O)n1-c1cncc2ccccc12 [Compound I-034] | < 1000 | < 100 | 
N#Cc1cc(Cn2c(Nc3cc4cn(C(F)F)nc4cc3Cl)nc(=O)n(-c3cncc4ccccc34)c2=O)ccc1F [Compound I-024] | < 1000 | < 100 | 
Cc1cc2nn(C)cc2cc1Nc1nc(=O)n(-c2cncc3ccccc23)c(=O)n1Cc1cc(F)c(F)c(F)c1 [Compound I-013] | 1000 to 10000 | < 100 | 
Cn1cc2cc(Nc3nc(=O)n(-c4cncc5ccccc45)c(=O)n3Cc3cc(F)c(F)c(F)c3)c(Cl)cc2n1 [Compound I-014] | < 1000 | < 100 | 
Cc1cncc(-n2c(=O)nc(Nc3cc4cn(C)nc4cc3F)n(Cc3cc(F)c(F)c(F)c3)c2=O)c1 [Compound I-002] | < 1000 | < 100 | 
Cc1cc2nn(C)cc2cc1Nc1nc(=O)n(-c2cncc3ccccc23)c(=O)n1Cc1ccc(F)c(C#N)c1 [Compound I-027] | < 1000 | < 100 | 

Reference: US20250127788A1, “PHARMACEUTICAL COMPOSITION CONTAINING TRIAZINE DERIVATIVE” (Shionogi & Co., Ltd., priority 2021, published 2025)
